# Reference: patent US6784153B1, “Methods of homing molecules to lung using membrane dipeptidase” (The Burnham Institute, priority 1998, dated 2004)
# Legend:
# Set-up in all cases: species or system mice
# prostate = test: in vivo panning of X7 library, prostate; details: for % OF MOTIF AMONG ALL CLONES: PROSTATE; for prostate/brain homing ratio: PROSTATE section, prostate as compared to brain; for enrichment in homing to prostate as compared to brain: mouse, in vivo
# Procedure: (§1) Following various in vivo panning screens, hundreds of thousands to millions of phage expressing homing peptides were recovered from the respective organ or tissue. Generally, the phage collected from a round of in vivo panning were plated on agar, about 250 to 300 clones were selected, grown in 5 ml cultures, then pooled and readministered for a subsequent round of in vivo panning (“regular method”). However, in some experiments, 1000 clones were selected, grown in 2 ml cultures, then pooled and administered for a subsequent round of screening; or the entire agar plate was scraped and all of the phage were cultured together and administered for a subsequent round of screening. The peptide inserts of various isolated phage were determined such that, of the millions of phage that homed, only a small number of sequences were identified.
# The invention also provides prostate homing peptides such as SMSIARL (SEQ ID NO: 21) and VSFLEYR (SEQ ID NO: 22), which were identified by injection of an X7 (SEQ ID NO: 29) library into mice (Table 7). The peptides were isolated by the regular method.
# (§2) Organ samples were washed 3 times with ice cold DMEM-PI containing 1% bovine serum albumin (BSA), then directly incubated with 1 ml K91-kan bacteria for 1 hr. Ten ml NZY medium containing 0.2 μg/ml tetracycline (NZY/tet) was added to the bacterial culture, the mixture was incubated in a 37° C. shaker for 1 hr, then 200 μl aliquots were plated in agar plates containing 40 μg/ml tetracycline (tet/agar).
# (§3) Approximately 250 to 300 individual bacterial colonies containing phage recovered from the various organs or tissues were grown for 16 hr in 5 ml NZY/tet. In some experiments, approximately 1000 individual bacteria containing phage were picked and the phage were amplified in 2 ml of NZY/tet or the entire plate containing phage was scraped, pooled and grown in bulk and processed for injection. Where phage were cultured separately, the cultures were pooled and the phage were injected into mice or rats as described above for a second round of in vivo panning. In some experiments, a third or fourth round of panning was performed. Phage DNA was purified from individual bacterial colonies obtained and the DNA sequences encoding the peptides expressed by selected phage were determined (see Koivunen et al., supra, 1994b).
# gut = test: in vivo panning of X7 library, gut; details: for gut/brain enrichment ratio: GUT section, gut as compared to brain; for % OF MOTIF AMONG ALL CLONES: GUT, of 40 clones sequenced
# Procedure: as §1
# The invention also provides gut homing peptides such as YSGKWGK (SEQ ID NO: 9) and YSGKWGW (SEQ ID NO: 156), which were identified by injection of an X7 (SEQ ID NO: 29) library into mice (Tables 1 and 4) and differ only in the last amino acid position. The peptides were isolated by the regular method. The gut homing peptide YSGKWGK (SEQ ID NO: 9) was present in 22% of 40 clones sequenced and was enriched 30-fold in gut as compared to brain (Table 1). In addition, gut homing peptides such as QVRRVPE (SEQ ID NO: 155) and VRRGSPQ (SEQ ID NO: 164), which share a VRR motif, were identified, as were the peptides VRRGSPQ (SEQ ID NO: 164), GGRGSWE (SEQ ID NO: 167) and FRVRGSP (SEQ ID NO: 169), which share an RGS motif.
# as §2, §3
# skin = test: in vivo homing of phage displaying peptides to skin
# Procedure: For in vivo panning of skin, two month old BALB/c nude mice were used to avoid contamination by hair. The mice were injected intravenously with phage as described above and, after perfusion through the heart, the skin was removed in large sections and placed on an ice cold plate with the hypodermis facing up. The skin was scraped with a scalpel to remove mostly hypodermis, which was then processed for phage recovery as described below.
# as §3
# in After two or three rounds of in vivo panning of mice injected with a cyclic CX3CX3CX3C (SEQ ID NO: 25) phage display library, the peptide sequence CVALCREACGEGC (SEQ ID NO: 3), which appeared repeatedly in skin, was identified (Table 1). To determine the specificity of skin homing of the sequence CVALCREACGEGC (SEQ ID NO: 3), phage displaying the peptide was amplified individually, diluted to the same input titer and administered to mice. Following administration, control kidney and brain organ were removed and the number of TU of phage in skin, kidney and brain was determined.
# Peptides that were identified more than one time during screening are indicated by an asterisk. For example, 14% of recovered CX3CX3CX3C (SEQ ID NO: 25) phage that homed to head skin had the sequence CVDVCCDGCPVCC (SEQ ID NO: 437). Phage having the sequence RVPLSGDVEH (SEQ ID NO: 438), LRVMSFTSGQ (SEQ ID NO: 439), or RFSVGSLFGS (SEQ ID NO: 440) each constituted 14% of recovered CX10C (SEQ ID NO: 30) phage that homed to head skin.
# lung = test: in vivo homing of phage displaying peptides to lung; details: for % OF MOTIF AMONG ALL CLONES: LUNG; for LUNG/BRAIN RATIO: LUNG section; for enriched in lung over unselected phage: individually amplified phage, FIG. 2; for enrichment in lung as compared to unselected phage: mouse, in vivo
# Procedure: For lung and pancreas, a mixture of phage libraries containing 10^10 TU was diluted in 200 μl DMEM and injected into the tail vein of anesthetized BALB/c mice (2 month old; Harlan Sprague Dawley; San Diego Calif.); AVERTIN (0.017 ml/g) was used as anesthetic (Pasqualini and Ruoslahti, supra, 1996). After 1-4 minutes, mice were snap frozen in liquid nitrogen or, after about 5 minutes of phage circulation, the mice were perfused through the heart with 5-10 ml of DMEM (SIGMA; St. Louis Mo.). To recover the phage, the organs from the perfused mice or partially thawed organs from snap frozen mice were collected and weighed, then were homogenized in 1 ml DMEM-PI (DMEM containing protease inhibitors (PI); phenylmethyl sulfonyl fluoride (PMSF; 1 mM), aprotinin (20 μg/ml), leupeptin (1 μg/ml)).
# as §2, §3
# After two or three rounds of in vivo panning of mice injected with a cyclic CX3CX3CX3C (SEQ ID NO: 25) or a cyclic CX6C (SEQ ID NO: 26) phage display library, four peptides that homed to lung were identified.
# To determine the specificity of lung homing of the individual peptides identified, phage displaying the peptides were amplified individually, diluted to the same input titer and administered to mice. Following administration, control kidney and brain organ was removed and the number of TU of phage in lung, kidney and brain was determined. The results shown in FIG. 2 reveal that 10× and 35× more phage having the peptide sequence CGFECVRQCPERC (SEQ ID NO: 1; GFE-1) bound to lung than to kidney and brain, respectively. […] The lung homing peptides CGFECVRQCPERC (SEQ ID NO: 1; GFE-1), CGFELETC (SEQ ID NO: 2; GFE-2), CTLRDRNC (SEQ ID NO: 15) and CIGEVEVC (SEQ ID NO: 16) are enriched in lung at 35×, 9×, 6× and 5×, respectively, over unselected phage (see FIG. 2).
# ovary = test: in vivo panning of X7 library, ovary; details: for ovary/brain enrichment ratio: OVARY section, ovary as compared to brain; for % OF MOTIF AMONG ALL CLONES: OVARY, of 40 clones sequenced; for enrichment in ovary as compared to brain: mouse, in vivo
# Procedure: as §1
# Also provided are ovary homing peptides such as RVGLVAR (SEQ ID NO: 11) and EVRSRLS (SEQ ID NO: 10), which were identified by injection of an X7 (SEQ ID NO: 29) library into mice (Table 8). The peptides were isolated by the regular method.
# as §2, §3
substance,measurement,setting,value
RGRWLAL [peptide from phage recovered from prostate],% OF MOTIF AMONG ALL CLONES,prostate,6%
SRRQPLS [peptide from phage recovered from gut],gut/brain enrichment ratio,gut,2
same,% OF MOTIF AMONG ALL CLONES,gut,11%
YSGKWGK [gut homing peptide],gut/brain enrichment ratio,gut,30
same,% OF MOTIF AMONG ALL CLONES,gut,22%
same,enriched in gut as compared to brain,"gut; mouse, in vivo",30 fold
CGATCEMQCPSGC [peptide from phage recovered from skin],"% of recovered CX3CX3CX3C phage, homing to tail skin",skin; tail skin,12%
CRLRSYGTLSLC [peptide from phage recovered from lung],% OF MOTIF AMONG ALL CLONES,lung,5%
same,LUNG/BRAIN RATIO,lung,0.4
CTVNEAYKTRMC [peptide from phage recovered from lung],% OF MOTIF AMONG ALL CLONES,lung,22%
same,LUNG/BRAIN RATIO,lung,3
CLAKENVVC [peptide from phage recovered from lung],% OF MOTIF AMONG ALL CLONES,lung,13%
same,LUNG/BRAIN RATIO,lung,2
SMSIARL [peptide from phage recovered from prostate],% OF MOTIF AMONG ALL CLONES,prostate,6%
same,prostate/brain homing ratio,prostate,34
same,enrichment in homing to prostate as compared to brain,prostate,34 fold
CLRPYLNC [peptide from phage recovered from lung],% OF MOTIF AMONG ALL CLONES,lung,10%
same,LUNG/BRAIN RATIO,lung,6
CERVVGSSC [peptide from phage recovered from lung],% OF MOTIF AMONG ALL CLONES,lung,9%
same,LUNG/BRAIN RATIO,lung,4
CVDVCCDGCPVCC [peptide from phage recovered from skin],% of recovered CX3CX3CX3C phage that homed to head skin,skin; head skin,14%
RVGLVAR [peptide from phage recovered from ovary],ovary/brain enrichment ratio,ovary,5
same,% OF MOTIF AMONG ALL CLONES,ovary,22%
same,enrichment in ovary as compared to brain,ovary,5 fold
RVPLSGDVEH [peptide from phage recovered from skin],% of recovered CX10C phage that homed to head skin,skin; head skin,14%
CSSGCSKNCLEMC [peptide from phage recovered from skin],skin/brain phage ratio,skin; SKIN section,2
CWRGDRKIC [peptide from phage recovered from lung],% OF MOTIF AMONG ALL CLONES,lung,8%
same,LUNG/BRAIN RATIO,lung,2
MSPQLAT [peptide from phage recovered from gut],% OF MOTIF AMONG ALL CLONES,gut,11%
CGKRYRNC,% OF MOTIF AMONG ALL CLONES,lung,5%
same,LUNG/BRAIN RATIO,lung,5
LRVMSFTSGQ [peptide from phage recovered from skin],% of recovered CX10C phage that homed to head skin,skin; head skin,14%
CTLRDRNC [lung homing peptide],% OF MOTIF AMONG ALL CLONES,lung,10%
same,LUNG/BRAIN RATIO,lung,8
same,enriched in lung over unselected phage,lung,6 ×
same,enrichment in lung as compared to unselected phage,lung,8 fold
RFSVGSLFGS [peptide from phage recovered from skin],% of recovered CX10C phage that homed to head skin,skin; head skin,14%
VSFLEYR [peptide from phage recovered from prostate],% OF MOTIF AMONG ALL CLONES,prostate,6%
same,prostate/brain homing ratio,prostate,17
same,enrichment in homing to prostate as compared to brain,prostate,17 fold
CIGEVEVC [peptide from phage recovered from lung],% OF MOTIF AMONG ALL CLONES,lung,5%
same,LUNG/BRAIN RATIO,lung,6
same,enriched in lung over unselected phage,lung,5 ×
same,enrichment in lung as compared to unselected phage,lung,6 fold
CKWSRLHSC [peptide from phage recovered from lung],% OF MOTIF AMONG ALL CLONES,lung,11%
same,LUNG/BRAIN RATIO,lung,3
GISALVLS,% OF MOTIF AMONG ALL CLONES,gut,11%
EVRSRLS [peptide from phage recovered from ovary],ovary/brain enrichment ratio,ovary,3
same,% OF MOTIF AMONG ALL CLONES,ovary,22%
same,enrichment in ovary as compared to brain,ovary,3 fold
CRPWHNQAHTEC [peptide from phage recovered from lung],% OF MOTIF AMONG ALL CLONES,lung,14%
same,LUNG/BRAIN RATIO,lung,5
